Measured values taken from ChEMBL document CHEMBL1201862, “PubChem BioAssay data set” (2004).
Activity calls are given as the source filed them.

How the values were obtained:
[1] = molecular target: Mitogen-activated protein kinase 10 (Homo sapiens, UniProt P53779); test: Dose response biochemical screening assay for inhibitors of c-Jun N-Terminal Kinase 3 (JNK3). [Related pubchem assays: 746 ]
[2] = cytotoxicity in KRAS-transformed pancreatic duct cells, primary screen, cell-based, fluorescence, HTS (AID 431); assay type: functional; conditions: Homo sapiens;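 further: cell line used: HPDE-C7K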
[3] = cytotoxicity in HPDE-C7 cells, cell-based, fluorescence, HTS (AID 430); assay type: functional; conditions: Homo sapiens
[4] = ADAM10 inhibitors, peptide cleavage, dose response, biochemical, QFRET (AID 743254);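 further: ADAM10 enzyme with the DM2 quenched FRET peptide as substrate; EDANS fluorescence gain as the protease cuts the substrate; inhibitor potency against ADAM10 proteolytic activity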
Vero [5] = test: cytotoxicity of synthesized analogs in Vero cells, SAR follow-up, cytotoxicity control for West Nile virus antiviral project, cell-based, set II (AID 2402); assay type: functional; conditions: Chlorocebus sabaeus
[6] = A Cell Based Assay for the Identification of Probe candidate Compounds with Anti- Venezuelan Equine Encephalitis virus. [Related pubchem assays: 2409, 2419, 1621, 2238, 2405, 2024, 2065, 2402, 2414, 1635, 1650, 2244 ]; assay type: functional
[7] = molecular target: T1, Low molecular weight phosphotyrosine protein phosphatase (Homo sapiens, UniProt P24666); test: LMPTP phosphatase inhibitors, dose response, biochemical, OMFP substrate, fluorescence intensity, set 2 (AID 743307); assay type: functional
T1 sequence (P24666 whole entry): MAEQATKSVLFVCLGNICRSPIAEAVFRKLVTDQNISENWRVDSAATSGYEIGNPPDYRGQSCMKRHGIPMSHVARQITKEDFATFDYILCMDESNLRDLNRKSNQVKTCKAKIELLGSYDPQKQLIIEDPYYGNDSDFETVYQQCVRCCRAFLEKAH

[8] = molecular target: T1, Low molecular weight phosphotyrosine protein phosphatase; test: LMPTP phosphatase inhibitors, colorimetric pNPP readout, dose response, orthogonal assay, biochemical, absorbance, pNPP substrate, LMPTP-A isoform, set 2 (AID 743308); assay type: functional
[9] = molecular target: Epstein-Barr nuclear antigen 1 (Epstein-Barr virus (strain B95-8) (HHV-4) (Human herpesvirus 4), UniProt P03211); test: EBNA-1 inhibitors, dose response, biochemical, fluorescence polarization, 1536-well (AID 2381); parameters: species or system human gammaherpesvirus 4;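 further: fluorescence polarization of a Cy5 DNA probe bound by EBNA-1 protein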
[10] = molecular target: Lytic switch protein BZLF1 (Epstein-Barr virus (strain B95-8) (HHV-4) (Human herpesvirus 4), UniProt P03206); test: EBV ZTA inhibitors, dose response, counter-screen for EBNA-1 inhibitor project, biochemical, fluorescence polarization, Epstein-Barr virus, 1536-well (AID 2377); parameters: species or system human gammaherpesvirus 4;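 further: fluorescence polarization of Cy5-labelled ZRE DNA probe bound by purified Zta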
[11] = Glucagon-like peptide 1 release potency, NCI-H716 cell line, dose-response, half-maximal inhibitory concentration (AID 1117344); assay type: functional, cell-based
[12] = half-maximal inhibitory concentration for glucagon-like peptide-1 release, STC-1 cell line, dose-response (AID 1117345); assay type: functional, cell-based
Cytochrome P450 2C9 = Cytochrome P450 2C9 (Homo sapiens, UniProt P11712); conditions: Potency
[13] = molecular target: T2, Zinc finger protein mex-5 (Caenorhabditis elegans, UniProt Q9XUB2); test: MEX-5/TCR-2 RNA interaction inhibitors, dose response, biochemical, C. elegans, fluorescence polarization (AID 1960)
T2 sequence (Q9XUB2 whole entry): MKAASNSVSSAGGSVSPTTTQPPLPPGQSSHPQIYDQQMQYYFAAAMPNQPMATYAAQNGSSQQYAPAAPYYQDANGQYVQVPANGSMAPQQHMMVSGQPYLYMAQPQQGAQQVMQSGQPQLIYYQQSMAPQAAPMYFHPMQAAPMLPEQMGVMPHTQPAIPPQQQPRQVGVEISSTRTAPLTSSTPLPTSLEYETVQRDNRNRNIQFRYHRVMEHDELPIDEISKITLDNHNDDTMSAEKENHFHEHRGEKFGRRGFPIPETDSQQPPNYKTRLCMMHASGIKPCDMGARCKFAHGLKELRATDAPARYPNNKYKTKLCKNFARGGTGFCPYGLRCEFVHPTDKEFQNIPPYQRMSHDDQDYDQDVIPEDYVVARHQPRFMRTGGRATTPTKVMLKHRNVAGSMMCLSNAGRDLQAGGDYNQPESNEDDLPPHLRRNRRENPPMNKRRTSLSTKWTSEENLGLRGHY

[14] = molecular target: T3, RNA-binding protein pos-1 (Caenorhabditis elegans, UniProt G5EF15); test: inhibitors of POS-1/mex-3 RNA binding, dose response, biochemical, fluorescence polarization (AID 1964);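 further: purified POS-1 fused to maltose binding protein made in E. coli; potency of compounds blocking POS-1 binding to fluorescent RNA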
T3 sequence (G5EF15 whole entry): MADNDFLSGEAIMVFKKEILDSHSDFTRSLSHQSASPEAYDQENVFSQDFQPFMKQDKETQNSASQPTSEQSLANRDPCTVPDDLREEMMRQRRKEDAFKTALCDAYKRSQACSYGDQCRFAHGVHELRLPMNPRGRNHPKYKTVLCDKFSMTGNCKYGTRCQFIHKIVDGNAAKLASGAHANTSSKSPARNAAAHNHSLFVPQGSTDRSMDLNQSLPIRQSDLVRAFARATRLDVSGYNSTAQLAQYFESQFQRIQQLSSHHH

Ephrin type-A receptor 4 = Ephrin type-A receptor 4 (Mus musculus, UniProt Q03137); test: inhibitors of EphA4 binding to KYL peptide, primary screen, biochemical, colorimetric, mouse EphA4 (AID 689); assay type: functional
[15] = molecular target: Voltage-dependent T-type calcium channel subunit alpha-1H (Homo sapiens, UniProt O95180); assay type: functional;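 further: channel activity triggered by adding a high calcium stimulation buffer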
[16] = P. falciparum late gametocyte killing, dose response, luminescence (AID 1117278); assay type: functional, cell-based;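 further: gametocytes exposed to compound for 24 hours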
[17] = Jurkat T cell cytotoxicity, dose response, cytotoxicity control for P. falciparum gametocyte viability project, luminescence (AID 1117277); assay type: functional, cell-based;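 further: potency reflects loss of cellular ATP meaning fewer viable cells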
Estrogen receptor beta [18] = molecular target: T4, Estrogen receptor beta (Homo sapiens, UniProt Q92731);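 further: recombinant ER-beta bound to coactivator SRC1 peptide in presence of estradiol agonist; inhibitors block coactivator peptide binding and lower the FRET signal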
Estrogen receptor beta [19] = molecular target: T4, Estrogen receptor beta; test: ERβ–SRC-3 coactivator interaction inhibitors, confirmation, orthogonal assay, biochemical, ELISA, streptavidin-HRP readout (AID 1060)
[20] = HEp-2 cell cytotoxicity, dose response, cytotoxicity control for RSV inhibitor project, HTS (AID 2410); assay type: functional; conditions: human respiratory syncytial virus
Vero [21] = test: host cell cytotoxicity of antiviral hits, dose response, cytotoxicity control for West Nile virus antiviral project, secondary assay (AID 1650); assay type: functional; conditions: Chlorocebus sabaeus
Melanocortin receptor 4 = Melanocortin receptor 4 (Homo sapiens, UniProt P32245); test: MC4R antagonist potency on cAMP, dose response, cell-based, TR-FRET, biased antagonists (AID 602298); assay type: functional;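 further: antagonist potency against agonist-stimulated cAMP production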
[22] = nonselective inhibitors of cellular cAMP signaling, dose response, counter-screen for MC4R biased antagonist project, cell-based, TR-FRET cAMP detection (AID 602305); assay type: functional;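 further: U2OS cells stimulated with forskolin near its EC80 as the cAMP inducer; potency is for inhibition of forskolin-stimulated cAMP signaling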

T4 sequence (Q92731 whole entry): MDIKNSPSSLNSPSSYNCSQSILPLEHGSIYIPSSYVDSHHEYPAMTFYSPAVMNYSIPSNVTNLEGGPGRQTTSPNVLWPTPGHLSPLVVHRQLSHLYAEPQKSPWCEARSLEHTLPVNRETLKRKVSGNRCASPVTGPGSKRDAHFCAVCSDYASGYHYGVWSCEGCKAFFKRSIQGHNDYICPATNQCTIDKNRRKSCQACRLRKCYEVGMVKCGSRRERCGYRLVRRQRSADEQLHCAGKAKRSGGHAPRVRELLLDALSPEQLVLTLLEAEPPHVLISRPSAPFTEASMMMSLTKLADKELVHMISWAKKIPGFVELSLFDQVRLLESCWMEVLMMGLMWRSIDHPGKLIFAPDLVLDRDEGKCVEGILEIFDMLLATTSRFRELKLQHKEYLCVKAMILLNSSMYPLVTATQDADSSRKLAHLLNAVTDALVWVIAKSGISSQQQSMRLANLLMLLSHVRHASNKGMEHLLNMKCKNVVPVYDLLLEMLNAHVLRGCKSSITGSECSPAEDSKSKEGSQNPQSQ
Mitogen-activated protein kinase 10, sequence (P53779 whole entry): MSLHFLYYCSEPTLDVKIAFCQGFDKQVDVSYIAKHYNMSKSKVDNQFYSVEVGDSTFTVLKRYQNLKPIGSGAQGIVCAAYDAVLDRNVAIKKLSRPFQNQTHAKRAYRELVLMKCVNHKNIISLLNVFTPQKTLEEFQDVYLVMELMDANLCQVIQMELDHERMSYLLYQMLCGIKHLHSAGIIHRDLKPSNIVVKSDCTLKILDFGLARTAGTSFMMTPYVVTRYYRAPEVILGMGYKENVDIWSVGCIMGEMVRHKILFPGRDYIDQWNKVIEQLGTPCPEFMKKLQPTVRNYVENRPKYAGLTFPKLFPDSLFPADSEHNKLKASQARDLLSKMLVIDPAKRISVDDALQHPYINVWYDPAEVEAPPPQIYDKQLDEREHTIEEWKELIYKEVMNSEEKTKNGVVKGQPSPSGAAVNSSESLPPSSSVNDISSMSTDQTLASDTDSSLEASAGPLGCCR
Lytic switch protein BZLF1, sequence (P03206 whole entry): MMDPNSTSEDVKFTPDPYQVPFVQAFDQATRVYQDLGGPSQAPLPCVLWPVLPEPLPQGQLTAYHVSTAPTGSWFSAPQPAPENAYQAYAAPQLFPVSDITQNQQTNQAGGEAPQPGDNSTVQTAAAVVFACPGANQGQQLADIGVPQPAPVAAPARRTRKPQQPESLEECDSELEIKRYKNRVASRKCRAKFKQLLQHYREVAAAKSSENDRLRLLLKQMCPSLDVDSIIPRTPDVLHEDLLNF
Epstein-Barr nuclear antigen 1, sequence (P03211 whole entry): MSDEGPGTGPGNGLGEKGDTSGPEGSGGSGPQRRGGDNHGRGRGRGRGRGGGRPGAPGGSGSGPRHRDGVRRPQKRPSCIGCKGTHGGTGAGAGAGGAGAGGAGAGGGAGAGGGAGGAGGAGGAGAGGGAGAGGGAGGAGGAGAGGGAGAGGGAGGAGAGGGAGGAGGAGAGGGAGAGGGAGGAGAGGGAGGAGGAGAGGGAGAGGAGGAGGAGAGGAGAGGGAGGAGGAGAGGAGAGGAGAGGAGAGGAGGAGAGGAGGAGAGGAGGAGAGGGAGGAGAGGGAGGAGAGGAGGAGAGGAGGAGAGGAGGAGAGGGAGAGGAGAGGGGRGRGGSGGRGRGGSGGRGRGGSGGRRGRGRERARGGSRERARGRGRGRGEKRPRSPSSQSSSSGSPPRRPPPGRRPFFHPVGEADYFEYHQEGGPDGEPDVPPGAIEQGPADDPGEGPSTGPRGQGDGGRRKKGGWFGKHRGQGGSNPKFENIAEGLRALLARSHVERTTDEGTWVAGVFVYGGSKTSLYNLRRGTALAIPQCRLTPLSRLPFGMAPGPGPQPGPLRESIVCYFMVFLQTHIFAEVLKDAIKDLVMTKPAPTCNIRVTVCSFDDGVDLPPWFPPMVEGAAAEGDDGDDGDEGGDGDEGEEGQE
Voltage-dependent T-type calcium channel subunit alpha-1H, sequence (O95180 whole entry): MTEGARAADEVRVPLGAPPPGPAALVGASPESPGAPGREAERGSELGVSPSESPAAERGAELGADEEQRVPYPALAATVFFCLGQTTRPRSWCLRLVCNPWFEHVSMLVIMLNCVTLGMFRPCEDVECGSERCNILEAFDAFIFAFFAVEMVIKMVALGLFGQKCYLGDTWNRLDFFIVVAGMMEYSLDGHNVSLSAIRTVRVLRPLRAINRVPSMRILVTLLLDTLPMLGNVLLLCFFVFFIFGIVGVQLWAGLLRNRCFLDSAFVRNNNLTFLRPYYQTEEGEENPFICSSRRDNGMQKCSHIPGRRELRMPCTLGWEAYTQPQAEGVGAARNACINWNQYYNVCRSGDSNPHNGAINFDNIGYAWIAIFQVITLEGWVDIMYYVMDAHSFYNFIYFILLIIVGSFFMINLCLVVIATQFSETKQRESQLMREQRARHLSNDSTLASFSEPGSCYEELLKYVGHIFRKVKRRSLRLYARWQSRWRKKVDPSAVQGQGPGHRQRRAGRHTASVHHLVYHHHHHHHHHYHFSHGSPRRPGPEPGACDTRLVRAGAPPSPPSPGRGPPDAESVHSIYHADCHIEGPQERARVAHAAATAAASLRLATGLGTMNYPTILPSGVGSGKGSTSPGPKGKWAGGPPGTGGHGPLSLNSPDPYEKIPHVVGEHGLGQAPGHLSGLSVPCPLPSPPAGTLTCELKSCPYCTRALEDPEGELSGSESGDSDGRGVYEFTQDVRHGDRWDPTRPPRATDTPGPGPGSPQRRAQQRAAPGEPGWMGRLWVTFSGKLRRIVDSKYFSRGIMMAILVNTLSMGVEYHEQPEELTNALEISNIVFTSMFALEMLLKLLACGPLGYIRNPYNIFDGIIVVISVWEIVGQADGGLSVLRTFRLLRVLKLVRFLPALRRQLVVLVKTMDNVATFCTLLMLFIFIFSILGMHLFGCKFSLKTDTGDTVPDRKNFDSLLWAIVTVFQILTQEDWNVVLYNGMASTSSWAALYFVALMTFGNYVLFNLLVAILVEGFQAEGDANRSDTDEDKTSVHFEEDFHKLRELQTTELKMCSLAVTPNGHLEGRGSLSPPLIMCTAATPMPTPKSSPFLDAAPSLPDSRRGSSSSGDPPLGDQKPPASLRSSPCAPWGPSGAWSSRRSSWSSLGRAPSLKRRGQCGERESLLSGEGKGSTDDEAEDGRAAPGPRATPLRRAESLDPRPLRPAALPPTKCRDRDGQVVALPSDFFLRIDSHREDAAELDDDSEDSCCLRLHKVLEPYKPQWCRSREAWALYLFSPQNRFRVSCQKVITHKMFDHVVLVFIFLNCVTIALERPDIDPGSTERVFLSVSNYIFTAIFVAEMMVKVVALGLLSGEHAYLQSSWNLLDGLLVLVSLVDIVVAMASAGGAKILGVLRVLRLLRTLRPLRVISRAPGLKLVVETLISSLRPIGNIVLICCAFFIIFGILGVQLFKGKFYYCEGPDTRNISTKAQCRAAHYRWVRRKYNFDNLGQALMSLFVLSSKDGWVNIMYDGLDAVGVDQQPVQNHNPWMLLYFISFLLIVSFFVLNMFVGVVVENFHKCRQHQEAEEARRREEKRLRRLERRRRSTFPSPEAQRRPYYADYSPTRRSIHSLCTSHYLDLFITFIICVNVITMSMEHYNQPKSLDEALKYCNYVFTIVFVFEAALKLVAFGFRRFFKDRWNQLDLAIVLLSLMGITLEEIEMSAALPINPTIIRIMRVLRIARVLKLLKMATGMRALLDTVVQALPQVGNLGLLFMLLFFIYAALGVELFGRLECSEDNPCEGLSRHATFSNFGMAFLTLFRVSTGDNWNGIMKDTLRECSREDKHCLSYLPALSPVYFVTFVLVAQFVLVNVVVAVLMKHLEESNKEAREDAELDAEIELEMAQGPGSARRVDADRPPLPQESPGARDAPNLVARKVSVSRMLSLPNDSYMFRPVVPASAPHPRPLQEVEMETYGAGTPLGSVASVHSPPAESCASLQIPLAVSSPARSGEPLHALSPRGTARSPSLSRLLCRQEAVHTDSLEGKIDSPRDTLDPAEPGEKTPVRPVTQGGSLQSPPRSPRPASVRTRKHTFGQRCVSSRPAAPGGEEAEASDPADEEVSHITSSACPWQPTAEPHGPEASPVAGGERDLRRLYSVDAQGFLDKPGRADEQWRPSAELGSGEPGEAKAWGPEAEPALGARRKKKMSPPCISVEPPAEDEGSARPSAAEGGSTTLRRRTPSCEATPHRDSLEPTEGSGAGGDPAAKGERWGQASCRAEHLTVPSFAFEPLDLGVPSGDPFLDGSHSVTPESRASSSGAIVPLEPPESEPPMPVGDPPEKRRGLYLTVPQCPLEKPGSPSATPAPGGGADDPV
Melanocortin receptor 4, sequence (P32245 whole entry): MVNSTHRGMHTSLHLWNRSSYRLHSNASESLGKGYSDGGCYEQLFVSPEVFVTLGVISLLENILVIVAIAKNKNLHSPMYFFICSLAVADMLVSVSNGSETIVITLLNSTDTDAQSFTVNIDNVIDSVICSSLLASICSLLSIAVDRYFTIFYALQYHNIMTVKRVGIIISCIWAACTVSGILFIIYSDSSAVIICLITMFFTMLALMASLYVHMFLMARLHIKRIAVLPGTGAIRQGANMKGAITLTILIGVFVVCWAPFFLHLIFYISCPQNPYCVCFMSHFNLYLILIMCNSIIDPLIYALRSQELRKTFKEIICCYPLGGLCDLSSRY
Cytochrome P450 2C9, sequence (P11712 whole entry): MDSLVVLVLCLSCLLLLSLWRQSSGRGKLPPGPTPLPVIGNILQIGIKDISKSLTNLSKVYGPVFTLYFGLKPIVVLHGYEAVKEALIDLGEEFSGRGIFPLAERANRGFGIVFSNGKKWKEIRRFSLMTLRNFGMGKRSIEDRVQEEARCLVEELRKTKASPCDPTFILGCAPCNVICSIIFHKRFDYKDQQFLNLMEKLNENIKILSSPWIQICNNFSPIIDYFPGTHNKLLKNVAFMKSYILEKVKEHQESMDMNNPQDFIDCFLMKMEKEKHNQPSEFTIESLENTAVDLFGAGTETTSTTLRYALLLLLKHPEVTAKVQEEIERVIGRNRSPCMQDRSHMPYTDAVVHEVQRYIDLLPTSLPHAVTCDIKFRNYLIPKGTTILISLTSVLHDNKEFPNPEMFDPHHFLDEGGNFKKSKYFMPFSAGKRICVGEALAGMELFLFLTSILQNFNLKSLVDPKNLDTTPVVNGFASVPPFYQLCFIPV

## Fc1cc2nccnc2cc1N1CCSCC1
[1]
  IC50: 50.2 µM (not active)

## COc1ccc(-c2[nH]nc(C(F)(F)F)c2-c2cc3ccccc3o2)c(O)c1
[2]
  EC50: 3.68 µM (active)
[3]
  EC50: 3.24 µM (active)
[4]
  IC50: > 69.5 µM (inactive)

## COc1ccc(-c2csc(N(CCCBr)C(=O)c3ccccc3Cl)n2)cc1
Vero [5]
  CC50: 78.2 µM (active)
[6]
  IC50: > 66.6 µM (active)

## c1ccc(-c2nc(NCCN3CCCCC3)c3ccccc3n2)cc1
[7]
  IC50: 64.3 µM (inactive)
[8]
  IC50: > 80 µM (inactive)

## NS(=O)(=O)c1ccc(NC(=O)COC(=O)/C(=C/c2cccs2)c2cccs2)cc1
[9]
  IC50: 17.1 µM (not active)
[10]
  IC50: > 111 µM (not active)

## CCOC(=O)[C@@H](N)CS
[11]
  IC50: > 40 µM (inactive)
[12]
  IC50: 14.3 µM (inactive)

## c1ccc(-c2nc(NCCN3CCOCC3)c3ccccc3n2)cc1
[7]
  IC50: 25.4 µM (inactive)
[8]
  IC50: 53.5 µM (inactive)

## CC(=O)c1ccc(OC2C=CC(c3ccc(Cl)cc3)OC2CO)cc1 (stereo not drawn)
Cytochrome P450 2C9
  AC50: 5.01 µM (inconclusive)

## COC1(OC)N=C(N)C2(C#N)C(c3ccc4c(c3)OCO4)C12C#N (stereo not drawn)
[1]
  IC50: > 93.1 µM (not active)
[13]
  EC50: 64.3 µM (active)
[14]
  EC50: 59.9 µM (active)

## Cc1cccc2cc(/C=C3\N=C(c4ccccc4)OC3=O)c(N3CCOCC3)nc12
Ephrin type-A receptor 4
  IC50: 1.35 µM (active)
[15]
  EC50: 0.685 µM (active)

## Nc1c(C(=O)Nc2ccc3c(c2)OCCO3)nnn1Cc1cccc(Cl)c1
[9]
  IC50: 9.25 µM (active)
[10]
  IC50: > 111 µM (not active)

## O=C(CSc1nc2ccccc2[nH]1)NCc1ccco1
[16]
  IC50: > 109 µM (inactive)
[17]
  IC50: > 83.3 µM (inactive)

## N=c1c(-c2nc3ccccc3[nH]2)cc(C(=O)c2cccs2)nn1-c1ccc(Cl)cc1
Estrogen receptor beta [18]
  IC50: > 50 µM (not active)
Estrogen receptor beta [19]
  IC50: > 50 µM (not active)

## Cc1ccc(Nc2nc(N/N=C/c3c[nH]c4ccccc34)nc(N3CCOCC3)n2)cc1
[20]
  CC50: 18.2 µM (active)
Vero [21]
  CC50: 12.9 µM (active)
Melanocortin receptor 4
  IC50: > 64.6 µM (inactive)
cells
  IC50: 20.5 µM (active)
[22]
  IC50: > 64.6 µM (inactive)

## CCOC(=O)CC1CCCCN1Cc1cn(C)nc1-c1ccc2c(c1)OCCO2 (stereo not drawn)
[16]
  IC50: > 109 µM (inactive)
[17]
  IC50: > 83.3 µM (inactive)
